Literature values in patent US8273706B2, “Isobarically labeled analytes and fragment ions derived therefrom” (DH Technologies Development Pte. Ltd., priority 2004, dated 2012).

Conditions: alcohol (leaving group) whose trifluoroacetate ester forms the active ester of N-methyl piperazine acetic acid

| pKa | SMILES |
| --- | --- |
| 7.78 | O=c1c2ccccc2nnn1O [Dhbt, 3-hydroxy-1,2,3-benzotriazine-4(3H)-one] |
| 9.38 | O=C1CCCN1O [NHP, N-hydroxypyrrolidinone] |
| 7.80 | O=C1CCC(=O)N1O [NHS, N-hydroxysuccinimide] |

| SMILES | pKa |
| --- | --- |
| O=[N+]([O-])c1cccc(O)c1 [3-NP, 3-nitrophenol] | 8.33 |
| Oc1c(Cl)c(Cl)c(Cl)c(Cl)c1Cl [Pcp, pentachlorophenol] | 4.68 |
